Consider 24 compounds from patent US8563730B2, “Pyrazole and fused pyrazole glucokinase activators” (Takeda San Diego, Inc., priority 2008, dated 2013).

In the experiment the target is T1, GK (glucokinase, residues 12-465) (Homo sapiens, UniProt P35557).
T1 construct: I.D. No. 1 corresponds to residues 12-465 of glucokinase; made in house; host or cells: DH10b-T1r E. coli
T1 sequence (P35557 with tags, fused parts or gaps isoform P35557-2): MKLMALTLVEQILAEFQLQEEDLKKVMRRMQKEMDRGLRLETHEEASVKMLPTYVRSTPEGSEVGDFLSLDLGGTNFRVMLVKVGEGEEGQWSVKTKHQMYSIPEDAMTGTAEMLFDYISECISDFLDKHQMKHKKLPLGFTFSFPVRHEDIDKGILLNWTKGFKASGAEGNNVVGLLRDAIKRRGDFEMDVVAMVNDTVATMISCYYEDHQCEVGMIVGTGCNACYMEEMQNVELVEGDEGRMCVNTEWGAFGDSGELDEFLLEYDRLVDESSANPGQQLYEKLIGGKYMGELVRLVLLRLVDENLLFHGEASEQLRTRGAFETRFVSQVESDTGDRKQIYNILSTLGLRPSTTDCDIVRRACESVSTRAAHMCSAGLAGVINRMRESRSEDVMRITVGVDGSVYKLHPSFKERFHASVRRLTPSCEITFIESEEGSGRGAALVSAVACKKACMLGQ
As to the kind of experiment: enzymatic glucokinase activity assay (ATP consumption, KinaseGlo luminescence). The settings on record: 5 μM ATP, 5 mM Glucose, reported as bins; for EC50: Kact = concentration that displays 50% of the maximal increase in GK activity, 60 min, room temperature, read-out: pKact; for Emax: calculated maximal gain in GK enzyme activity at a saturating concentration of the compound, read-out: % ACTmax. The format is biochemical. The procedure, abridged:
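E. coli-expressed recombinant GK purified by two anion-exchange steps. Reaction in 25 mM Hepes pH 7.2, 10 mM MgCl2, 1 mM DTT, 5 μM ATP, 5 mM glucose, 2% DMSO, 60 min at room temperature. ATP consumption quantified by KinaseGlo luminescence; pKact and % ACTmax derived by non-linear curve fitting.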

For `O=C1CC[C@H](CC(C(=O)Nc2cnccn2)n2ncc3c(S(=O)(=O)C4CC4)cccc32)C1` (stereo partly drawn) [Compound 71, 2-(4-(cyclopropylsulfonyl)-1H-indazol-1-yl)-3-((R)-3-oxocyclopentyl)-N-(pyrazin-2-yl)propanamide], the EC50 is 1.58 to 3.16 µM and the Emax is at most 90%.
On the same counts, the results for `O=C(Nc1cnccn1)[C@H](CC1CCOCC1)n1ncc2c(S(=O)(=O)C3CC3)ccnc21` [Compound 162, (S)-2-(4-(cyclopropylsulfonyl)-1H-pyrazolo[3,4-b]pyridin-1-yl)-N-(pyrazin-2-yl)-3-(tetrahydro-2H-pyran-4-yl)propanamide] are 1.58 to 3.16 µM and 106 to 110%.
On the same counts, the results for `N#Cc1cc(S(=O)(=O)C2CC2)c2cnn([C@H](CC3CCOCC3)C(=O)Nc3ncc(F)s3)c2c1` [Compound 132, (R)-2-(6-cyano-4-(cyclopropylsulfonyl)-1H-indazol-1-yl)-N-(5-fluorothiazol-2-yl)-3-(tetrahydro-2H-pyran-4-yl)propanamide] are 1.58 to 3.16 µM and 90 to 100%.
On the same counts, the results for `Nc1cc(S(=O)(=O)C2CC2)c2cnn([C@H](CC3CCOCC3)C(=O)Nc3cnccn3)c2n1` [Compound 163, (R)-2-(6-amino-4-(cyclopropylsulfonyl)-1H-pyrazolo[3,4-b]pyridin-1-yl)-N-(pyrazin-2-yl)-3-(tetrahydro-2H-pyran-4-yl)propanamide] are 1.58 to 3.16 µM and at most 90%.
For the compound `N#Cc1cc(S(=O)(=O)C2CC2)c2cnn(C(CC3CCOCC3)C(=O)Nc3cnccn3)c2c1` (stereo not drawn) [Compound 100, 2-(6-cyano-4-(cyclopropylsulfonyl)-1H-indazol-1-yl)-N-(pyrazin-2-yl)-3-(tetrahydro-2H-pyran-4-yl)propanamide], the EC50 lay within 0.398 to 1.26 µM and the Emax is at most 90%.
On the same counts, the results for `CS(=O)(=O)n1ccc(NC(=O)C(CC2CCOCC2)n2ncc3c(S(=O)(=O)C4CC4)cccc32)n1` (stereo not drawn) [Compound 146, 2-(4-(cyclopropylsulfonyl)-1H-indazol-1-yl)-N-(1-(methylsulfonyl)-1H-pyrazol-3-yl)-3-(tetrahydro-2H-pyran-4-yl)propanamide] are 3.98 to 12.6 µM and at most 90%.
The like results for `N#Cc1cnc(NC(=O)C(CC2CCOCC2)n2ncc3c(S(=O)(=O)C4CC4)cccc32)nc1` (stereo not drawn) [Compound 126, N-(5-cyanopyrimidin-2-yl)-2-(4-(cyclopropylsulfonyl)-1H-indazol-1-yl)-3-(tetrahydro-2H-pyran-4-yl)propanamide] were, in that order, at least 15.8 µM and at most 90%.
With `NC(=O)c1ccc(NC(=O)C(CC2CCOCC2)n2ncc3c(S(=O)(=O)C4CC4)cccc32)nc1` (stereo not drawn) [Compound 14, 6-(2-(4-(cyclopropylsulfonyl)-1H-indazol-1-yl)-3-(tetrahydro-2H-pyran-4-yl)propanamido)nicotinamide], the EC50 was at most 0.316 µM and the Emax is at least 111%.
As for `Cn1ccc(NC(=O)C(CC2CCOCC2)n2ncc3c(S(=O)(=O)C4CC4)cncc32)n1` (stereo not drawn) [Compound 151, 2-(4-(cyclopropylsulfonyl)-1H-pyrazolo[3,4-c]pyridin-1-yl)-N-(1-methyl-1H-pyrazol-3-yl)-3-(tetrahydro-2H-pyran-4-yl)propanamide], the EC50 fell in the range of 1.58 to 3.16 µM and the Emax was 90 to 100%.
The like results for `Cn1ccc(NC(=O)[C@H](CC2CCOCC2)n2ncc3c(S(=O)(=O)C4CC4)cncc32)n1` [Compound 159, (S)-2-(4-(cyclopropylsulfonyl)-1H-pyrazolo[3,4-c]pyridin-1-yl)-N-(1-methyl-1H-pyrazol-3-yl)-3-(tetrahydro-2H-pyran-4-yl)propanamide] were, in that order, 1.58 to 3.16 µM and 101 to 105%.
`COc1cc(S(=O)(=O)C2CC2)c2cnn([C@H](CC3CCOCC3)C(=O)Nc3ncc(F)s3)c2c1` [Compound 129, (R)-2-(4-(cyclopropylsulfonyl)-6-methoxy-1H-indazol-1-yl)-N-(5-fluorothiazol-2-yl)-3-(tetrahydro-2H-pyran-4-yl)propanamide]: the EC50 was in the range of 3.98 to 12.6 µM and the Emax is at most 90%.
For `COC(=O)c1cnc(NC(=O)C(CC2CCCC2)n2cc(S(=O)(=O)C3CC3)cn2)s1` (stereo not drawn) [Compound 6, Methyl 2-(3-cyclopentyl-2-(4-(cyclopropylsulfonyl)-1H-pyrazol-1-yl)propanamido)thiazole-5-carboxylate], the EC50 is 3.98 to 12.6 µM and the Emax is at least 111%.
As to `COc1ccc2nc(NC(=O)C(CC3CCOCC3)n3cc(S(=O)(=O)c4ccc(Cl)cc4)cn3)sc2n1` (stereo not drawn) [Compound 30, 2-(4-(4-chlorophenylsulfonyl)-1H-pyrazol-1-yl)-N-(5-methoxythiazolo[5,4-b]pyridin-2-yl)-3-(tetrahydro-2H-pyran-4-yl)propanamide], the EC50 lay in the range of 3.98 to 12.6 µM and the Emax is at most 90%.
The like results for `O=C(Nc1cnccn1)C(CC1CCOCC1)n1cc(S(=O)(=O)C2CC2)cn1` (stereo not drawn) [Compound 46, 2-(4-(cyclopropylsulfonyl)-1H-pyrazol-1-yl)-N-(pyrazin-2-yl)-3-(tetrahydro-2H-pyran-4-yl)propanamide] were, in that order, at least 15.8 µM and 101 to 105%.
As to `Cn1ccc(NC(=O)C(CC2CCOCC2)n2ncc3c(S(=O)(=O)C4CC4)cc(C#N)cc32)n1` (stereo not drawn) [Compound 19, 2-(6-cyano-4-(cyclopropylsulfonyl)-1H-indazol-1-yl)-N-(1-methyl-1H-pyrazol-3-yl)-3-(tetrahydro-2H-pyran-4-yl) propanamide], the EC50 was at most 0.316 µM and the Emax was at most 90%.
Turning to `O=C(Nc1ncc(F)s1)C(CC1CCOCC1)n1cc2c(S(=O)(=O)C3CC3)c(F)ccc2n1` (stereo not drawn) [Compound 148, 2-(4-(cyclopropylsulfonyl)-5-fluoro-2H-indazol-2-yl)-N-(5-fluorothiazol-2-yl)-3-(tetrahydro-2H-pyran-4-yl)propanamide], the EC50 was 3.98 to 12.6 µM and the Emax is at most 90%.
As to `COc1ccc2c(cnn2[C@@H](CC2CCOCC2)C(=O)Nc2ncc(F)s2)c1S(=O)(=O)C1CC1` [Compound 82, (S)-2-(4-(cyclopropylsulfonyl)-5-methoxy-1H-indazol-1-yl)-N-(5-fluorothiazol-2-yl)-3-(tetrahydro-2H-pyran-4-yl)propanamide], the EC50 is at most 0.316 µM and the Emax was 106 to 110%.
As for `COc1ccc2nc(NC(=O)[C@@H](CC3CCOCC3)n3ccc(S(=O)(=O)C4CC4)n3)sc2n1` [Compound 3, (R)-2-(3-(cyclopropylsulfonyl)-1H-pyrazol-1-yl)-N-(5-methoxythiazolo[5,4-b]pyridin-2-yl)-3-(tetrahydro-2H-pyran-4-yl)propanamide], the EC50 is at least 15.8 µM and the Emax was at most 90%.
The like results for `Cc1ccc2c(cnn2C(CC2CCOCC2)C(=O)Nc2ccn(C)n2)c1S(=O)(=O)C1CC1` (stereo not drawn) [Compound 158, 2-(4-(cyclopropylsulfonyl)-5-methyl-1H-indazol-1-yl)-N-(1-methyl-1H-pyrazol-3-yl)-3-(tetrahydro-2H-pyran-4-yl)propanamide] were, in that order, 0.398 to 1.26 µM and at least 111%.
As for `COc1ccc2nc(NC(=O)[C@@H](CC3CCOCC3)n3cc(S(=O)(=O)C4CC4)cn3)sc2n1` [Compound 25, (R)-2-(4-(cyclopropylsulfonyl)-1H-pyrazol-1-yl)-N-(5-methoxythiazolo[5,4-b]pyridin-2-yl)-3-(tetrahydro-2H-pyran-4-yl)propanamide], the EC50 is at least 15.8 µM and the Emax was at most 90%.
On the same counts, the results for `O=C(Nc1ncc(F)s1)C(CC1CCOCC1)n1ncc2c(S(=O)(=O)C3CC3)c(O)ccc21` (stereo not drawn) [Compound 144, 2-(4-(cyclopropylsulfonyl)-5-hydroxy-1H-indazol-1-yl)-N-(5-fluorothiazol-2-yl)-3-(tetrahydro-2H-pyran-4-yl)propanamide] are at most 0.316 µM and 106 to 110%.
Regarding `Cn1ccc(NC(=O)[C@H](CC2CCOCC2)n2ncc3c(S(=O)(=O)C4CC4)c(F)ccc32)n1` [Compound 165, (S)-2-(4-(cyclopropylsulfonyl)-5-fluoro-1H-indazol-1-yl)-N-(1-methyl-1H-pyrazol-3-yl)-3-(tetrahydro-2H-pyran-4-yl)propanamide], the EC50 is at most 0.316 µM and the Emax is 90 to 100%.
`Nc1cc(S(=O)(=O)C2CC2)c2cnn(C(CC3CCOCC3)C(=O)Nc3ncc(F)s3)c2c1` (stereo not drawn) [Compound 142, 2-(6-amino-4-(cyclopropylsulfonyl)-1H-indazol-1-yl)-N-(5-fluorothiazol-2-yl)-3-(tetrahydro-2H-pyran-4-yl)propanamide]: the EC50 is at most 0.316 µM and the Emax was 101 to 105%.
For the compound `COc1cc(S(=O)(=O)C2CC2)c2cnn(C(CC3CCOCC3)C(=O)Nc3ncc(F)s3)c2c1` (stereo not drawn) [Compound 72, 2-(4-(cyclopropylsulfonyl)-6-methoxy-1H-indazol-1-yl)-N-(5-fluorothiazol-2-yl)-3-(tetrahydro-2H-pyran-4-yl)propanamide], the EC50 was at most 0.316 µM and the Emax was at most 90%.
